Laboratory results: ChEMBL document CHEMBL3352676, “Terpenoids from the root bark of Pterolobium macropterum” (J Nat Prod, 2014)
Calls of active or inactive are those of the source. No cut-off for these calls is given here.

Tests used:
[1] = Cytotoxicity against human KKU-M213 cells assessed as growth inhibition after 72 hrs by sulforhodamine B assay; conditions: KKU-M213, 72 h
[2] = Cytotoxicity against human KKU-M156 cells assessed as growth inhibition after 72 hrs by sulforhodamine B assay; conditions: KKU-M156, 72 h
Vero [3] = experiment: Cytotoxicity against african green monkey Vero cells assessed as growth inhibition after 72 hrs by sulforhodamine B assay; conditions: Chlorocebus sabaeus
[4] = Cytotoxicity against human KKU-M139 cells assessed as growth inhibition after 72 hrs by sulforhodamine B assay; conditions: KKU-M139, 72 h
KKU-M213 = experiment: Cytotoxicity against human KKU-M213 cells assessed as growth inhibition at > 200 uM after 72 hrs by sulforhodamine B assay
Vero [5] = experiment: Cytotoxicity against african green monkey Vero cells assessed as growth inhibition at > 200 uM after 72 hrs by sulforhodamine B assay; conditions: Chlorocebus sabaeus
KKU-M156 = experiment: Cytotoxicity against human KKU-M156 cells assessed as growth inhibition at > 200 uM after 72 hrs by sulforhodamine B assay
KKU-M139 = experiment: Cytotoxicity against human KKU-M139 cells assessed as growth inhibition at > 200 uM after 72 hrs by sulforhodamine B assay

Compound COC(=O)[C@]1(C)CCC[C@@]2(C)[C@H]1CC[C@H]1[C@@H](C)C3=CC(=O)O[C@]3(O)C[C@@H]12 has an IC50 [1] of 44 µM, an IC50 [2] of 61.2 µM and an IC50 (Vero [3]) of 59.2 µM. The IC50 [4] was 76.3 µM.
For COC(=O)C1(C(=O)OC)CCC[C@]2(C)c3cc4occc4c(C)c3CC[C@@H]12, the IC50 [1] was 44.2 µM, the IC50 [2] was 83.6 µM and the IC50 (Vero [3]) was 65.7 µM. The IC50 [4] was 80.2 µM.
With CC(C)[C@@H]1CC[C@@H](C)[C@@H]2CCC(=O)C=C12 the IC50 [1] was 87.3 µM, the IC50 [2] was 88.8 µM and the IC50 (Vero [3]) was 154 µM. The IC50 [4] was 70.8 µM.
With CC(C)[C@]1(O)CC[C@@H](C)[C@@H]2CCC(=O)C=C21 the IC50 [2] was 139 µM, the IC50 (Vero [3]) was 154 µM and the IC50 [4] was 148 µM. For the same compound, the inhibition (KKU-M213) was “inactive”.
With COC(=O)[C@]1(C)CC[C@@H](OC(C)=O)[C@]2(C)c3cc4occc4c(C)c3C[C@@H](O)[C@H]21 the IC50 [1] was 98.2 µM, the IC50 [2] was 115 µM and the Activity (Vero [5]) was “Non-toxic”. It also gave an IC50 [4] of 155 µM.
For CC(C)[C@@H]1CC[C@@H](C)[C@@H]2CCC(C=O)=C[C@@]12O, the IC50 [1] was 88.8 µM, the inhibition (KKU-M156) was “inactive” and the Activity (Vero [5]) was “Non-toxic”. For the same compound, the inhibition (KKU-M139) was “inactive”.
In the case of COC(=O)[C@]1(C)CCC[C@]2(C)c3cc4occc4c(C)c3C[C@@H](O)[C@@H]12, the IC50 [1] is reported as 105 µM, the IC50 [2] is reported as 113 µM and the Activity (Vero [5]) is reported as “Non-toxic”. The IC50 [4] was 122 µM.
Cc1c2ccncc2c(C)c2c1[nH]c1ccccc12 [ELLIPTECINE] showed an IC50 [1] of 6.58 µM, an IC50 [2] of 37.9 µM and an IC50 (Vero [3]) of 15.5 µM. For the same compound, the IC50 [4] was 18.3 µM.
In the case of CC1=C2CC3CC[C@@H](C)C2(CC1=O)C3(C)C (stereo partly specified), the IC50 [1] is reported as 138 µM, the inhibition (KKU-M156) is reported as “inactive” and the Activity (Vero [5]) is reported as “Non-toxic”. The inhibition (KKU-M139) was “inactive”.
Compound C[C@H]1C2=CC(=O)O[C@]2(O)C[C@H]2[C@H]1CC[C@@H]1[C@]2(C)CCC[C@@]1(C)C(=O)O [DIPTERYXIC ACID] has an IC50 [1] of 68.9 µM, an IC50 [2] of 82.9 µM and an IC50 (Vero [3]) of 97.1 µM. It also gave an IC50 [4] of 77.3 µM.
For COC(=O)[C@]1(C)CCC[C@@]2(C)[C@H]1CC[C@H]1C(C)=CC(=O)C[C@@H]12, the IC50 [1] was 66.8 µM, the inhibition (KKU-M156) was “inactive” and the IC50 (Vero [3]) was 50.5 µM. The IC50 [4] was 197 µM.
In the case of COC(=O)[C@]1(C)CCC[C@@]2(C)[C@H]1CC[C@H]1C(=O)c3ccoc3C[C@@H]12, the IC50 [1] is reported as 34.8 µM, the IC50 [2] is reported as 148 µM and the Activity (Vero [5]) is reported as “Non-toxic”. The IC50 [4] was 23.2 µM.
With COC(=O)[C@]1(C)CCC[C@@]2(C)[C@H]1CC[C@H]1[C@@H](C)C3=CC(=O)OC3=C[C@@H]12 the IC50 [1] was 47.6 µM, the inhibition (KKU-M156) was “inactive” and the IC50 (Vero [3]) was 94.4 µM. The inhibition (KKU-M139) was “inactive”.
Work on COC(=O)[C@]1(C)CCC[C@]2(C)c3cc4occc4c(C)c3CC[C@@H]12 yielded an IC50 [1] of 144 µM, an IC50 [2] of 80.1 µM and an IC50 (Vero [3]) of 57.6 µM. It also gave an IC50 [4] of 70.6 µM.
